From patent US10487064B1, “Crystalline forms of selective S1P1 receptor modulator and preparation method thereof” (Crystal Pharmatech Co., Ltd., priority 2015, dated 2019)
In brackets after ≈: the same amount, converted by molar mass. Entries after “also recorded” stand apart in the source; their conditions may differ.

Experiments:
[1] = Solubility assessment: saturated solutions in FaSSIF, FeSSIF, SGF and water, concentration by HPLC; format: physicochemical; details: for solubility compared with Form C in prior art: general statement
Protocol: Saturated solution of Form 2 and Form A, Form C disclosed in CN102177144B were prepared in FaSSIF (Fasted state simulated intestinal fluids, pH=6.5), FeSSIF (Fed state simulated intestinal fluids, pH=5.0), SGF (Simulated gastric fluids, pH=1.8), and water. Concentrations in the saturation solutions were measured after 1 hour and 24 hours by HPLC.
Form 3 and Form A, Form C were prepared into saturated solution in FaSSIF (Fasted state simulated intestinal fluids, pH=6.5), FeSSIF (Fed state simulated intestinal fluids, pH=5.0) and water. Concentrations in the saturation solutions were measured after 1 hour and 24 hours by HPLC.

[2] = Stability assessment of crystalline forms on storage (XRPD before and after); format: physicochemical; details: for Solid Form after storage / Crystalline form after storing: XRPD; for stability compared with Form C in prior art: general statement; for physical stability (overall conclusion): storage conditions of the stability assessment
Protocol: 20 mg of sample of Form 2 was stored under 25° C./60% RH, 40° C./75% RH for 6 months, and 80° C. for 3 months. […] 20 mg of sample of Form 3 was stored under 25° C./60% RH and 40° C./75% RH for 6 months.

[3] = cited from earlier work
[4] = treatment of moderate-to-severe chronic plaque psoriasis; cited from earlier work

| SMILES | Solubility ([1]; FaSSIF pH=6.5, 1 h) | Solubility ([1]; FaSSIF pH=6.5, 24 h) | Solubility ([1]; FeSSIF pH=5.0, 1 h) | Solubility ([1]; FeSSIF pH=5.0, 24 h) | Solubility ([1]; SGF pH=1.8, 1 h) | Solubility ([1]; SGF pH=1.8, 24 h) | solubility compared with Form C in prior art [1] | stability compared with Form C in prior art [2] | also measured |
| --- | --- | --- | --- | --- | --- | --- | --- | --- | --- |
| CCC/N=C1\S/C(=C\c2ccc(OC[C@H](O)CO)c(Cl)c2)C(=O)N1c1ccccc1C [Form 2, Ponesimod] | 17 µg/mL (≈ 36.9 µM) | 33 µg/mL (≈ 71.6 µM) | 996 µg/mL (≈ 2160 µM) | 813 µg/mL (≈ 1760 µM) | 97 µg/mL (≈ 210 µM) | 124 µg/mL (≈ 269 µM) | better | better | solubility compared with Form A and Form C ([1]; in FaSSIF, FeSSIF, and SGF): higher; Solid Form after storage ([2]; 25° C./60% RH, 6 months): doesn't change; also recorded: Form 2; Solid Form after storage ([2]; 40° C./75% RH, 6 months): doesn't change; also recorded: Form 2; Solid Form after storage ([2]; 80° C., 3 months): doesn't change; also recorded: Form 2; physical stability (overall conclusion) [2]: good physical stability |
| CCC/N=C1\S/C(=C\c2ccc(OC[C@H](O)CO)c(Cl)c2)C(=O)N1c1ccccc1C [Form C, Ponesimod, reference compound] | 10 µg/mL (≈ 21.7 µM) |  | 133 µg/mL (≈ 289 µM) | 149 µg/mL (≈ 323 µM) | 29 µg/mL (≈ 62.9 µM) | 24 µg/mL (≈ 52.1 µM) |  |  | solubility at 1 h ([1]; water, thermodynamic from solid, H2O, 1 h, ND = below the LOD of instrument): 3 µg/mL (≈ 6.51 µM); solubility at 24 h ([1]; water, thermodynamic from solid, H2O, 24 h, ND = below the LOD of instrument): 1 µg/mL (≈ 2.17 µM); solubility (in words) [3]: unsatisfactory |
| CCC/N=C1\S/C(=C\c2ccc(OC[C@H](O)CO)c(Cl)c2)C(=O)N1c1ccccc1C [Form 1, Ponesimod] |  |  |  |  |  |  | better | better |  |
| CCC/N=C1\S/C(=C\c2ccc(OC[C@H](O)CO)c(Cl)c2)C(=O)N1c1ccccc1C [Form 3, Ponesimod] | 84 µg/mL (≈ 182 µM) | 15 µg/mL (≈ 32.5 µM) | 1168 µg/mL (≈ 2530 µM) | 486 µg/mL (≈ 1050 µM) |  |  | better | better | solubility compared with Form A and Form C ([1]; in FaSSIF and FeSSIF): higher; Crystalline form after storing ([2]; 25° C./60% RH, 6 months): doesn't change; also recorded: Form 3; Crystalline form after storing ([2]; 40° C./75% RH, 6 months): doesn't change; also recorded: Form 3; physical stability (overall conclusion) [2]: good physical stability |
| CCC/N=C1\S/C(=C\c2ccc(OC[C@H](O)CO)c(Cl)c2)C(=O)N1c1ccccc1C [Ponesimod] |  |  |  |  |  |  |  |  | result of phase II mid-stage study [4]: positive results |
| CCC/N=C1\S/C(=C\c2ccc(OC[C@H](O)CO)c(Cl)c2)C(=O)N1c1ccccc1C [Form III, Ponesimod] |  |  |  |  |  |  |  |  | form transformation ([3]; at room temperature): will transform to Form II at room temperature |
| CCC/N=C1\S/C(=C\c2ccc(OC[C@H](O)CO)c(Cl)c2)C(=O)N1c1ccccc1C [Form A, Ponesimod, reference compound] | 7 µg/mL (≈ 15.2 µM) | 4 µg/mL (≈ 8.68 µM) | 141 µg/mL (≈ 306 µM) | 163 µg/mL (≈ 354 µM) | 34 µg/mL (≈ 73.8 µM) | 45 µg/mL (≈ 97.6 µM) |  |  | thermodynamic stability ([3]; compared with Form C): inferior to Form C |
